Test results: patent US4490370A, “Naphthylglycyl cephalosporin derivatives” (priority 1983, dated 1984)
Where two headings read alike, the source gives them in different places.

How the values were obtained:
Staph. aureus = assay: Agar dilution MIC, Staph. aureus; type: cell-based; settings: Staphylococcus aureus, read-out: MIC
From the text: (§1) The following Tables present typical minimum inhibitory concentrations (MIC's) in μg/ml for the compounds when evaluated against the indicated microorganisms.

[1] = system: β-lactamase (organism 1313G); assay: Stability to β-lactamases, 1313G; type: biochemical; settings: lower numbers mean greater stability
[2] = system: β-lactamase (organism PS185); assay: Stability to β-lactamases, PS185; type: biochemical; settings: lower numbers mean greater stability
Propionibacterum acnes = assay: Susceptibility of anaerobes, agar-dilution, 24 hour MIC; type: cell-based
From the text: (§2) A typical and preferred compound provided by this invention is 7-(2-naphthylglycylamido)-3-methyl-3-cephem-4-carboxylic acid, the compound of Example 3. The antibacterial activity of this compound and several others of the invention has been determined in standard in vitro agar dilution assays against a variety of gram positive microorganisms. The following Tables present typical minimum inhibitory concentrations (MIC's) in μg/ml for the compounds when evaluated against the indicated microorganisms. MIC's for several known compounds are also presented for comparison.
(§3) Susceptibility of Anaerobic Cocci
(§4) Isolates by the Agar-Dilution
(§5) Method-24 hour MIC's (μg/ml)

H. influ. = assay: Agar dilution MIC, H. influenza; type: cell-based; settings: Table III, strain 102; read-out: MIC
From the text: as §1

Strep. A = assay: Agar dilution MIC, Strep. A; type: cell-based; settings: Table I, strain C203; read-out: MIC
From the text: as §2

[3] = Oral absorption and blood levels in rodents; type: in vivo
β-lactamase (TEM) = assay: Stability to β-lactamases, TEM; type: biochemical; settings: lower numbers mean greater stability
Strep. PN = assay: Agar dilution MIC, Strep. PN; type: cell-based; settings: Table I, strain PARK; read-out: MIC
From the text: as §1

Bacteroides fragilis = assay: Susceptibility of anaerobes, agar-dilution, 24 hour MIC; type: cell-based
[4] = system: β-lactamase (organism 265A); assay: Stability to β-lactamases, 265A; type: biochemical; settings: lower numbers mean greater stability
[5] = system: β-lactamase (organism 1082E); assay: Stability to β-lactamases, 1082E; type: biochemical; settings: lower numbers mean greater stability
Klebsiella = assay: Agar dilution MIC, Klebsiella; type: cell-based; settings: Klebsiella; Table I, strain X26; read-out: MIC
From the text: as §2

B. Fragilis = assay: Expanded spectrum MIC, B. Fragilis; type: cell-based; settings: Bacteroides fragilis, Table III, read-out: MIC
From the text: as §2

[6] = system: Peptostreptococcus anaerobius; assay: Susceptibility of anaerobic cocci, agar-dilution, 24 hour MIC; type: cell-based
From the text: as §2, §3, §4, §5

[7] = system: Peptostreptococcus intermedius; assay: as above; type: cell-based
From the text: as §2, §3, §4, §5

P. prevoti = assay: as above; type: cell-based; settings: isolate 1293
From the text: as §2, §3, §4, §5

Peptococcus Constellatus = assay: as above; type: cell-based; settings: Streptococcus constellatus, isolate 1468
From the text: as §2, §3, §4, §5

[8] = system: Peptococcus Asaccharolyticus; assay: as above; type: cell-based; settings: Peptoniphilus asaccharolyticus, isolate 1344
From the text: as §2, §3, §4, §5

P. magnus = assay: as above; type: cell-based; settings: Finegoldia magna
From the text: as §2, §3, §4, §5

[9] = Plasma concentration after intravenous dose in rats; type: in vivo; settings: rat, intravenous 20 mg/kg
Protocol: For example, when 7-(2-naphthylglycylamido)-3-methyl-3-cephem-4-carboxylic acid was administered to rats at an intravenous dose of 20 mg/kg, the plasma concentration after one hour was 18.6 μg/ml; after four hours, 14.1 μg/ml; and after twenty-four hours, the plasm level was still measured as 1.96 μg/ml.

Staph. epi = assay: Agar dilution MIC, Staph. epi; type: cell-based; settings: read-out: MIC
From the text: as §1

## CC1=C(C(=O)O)N2C(=O)C(NC(=O)[C@H](N)c3ccc4ccccc4c3)C2SC1 (stereo partly drawn) [Example 3, D-7-(2-naphthylglycylamido)-3-methyl-3-cephem-4-carboxylic acid tetrahydrate]
Staph. aureus; Table I, strain V41
  MIC: 8 µg/mL
Staph. aureus; Table I, strain X1.1
  MIC: 0.5 µg/mL
Staph. aureus; Table I, strain X400
  MIC: 64 µg/mL
Staph. aureus; Table II, strain S224
  MIC: 0.5 µg/mL
Staph. aureus; Table II, strain S225
  MIC: 0.5 µg/mL
Staph. aureus; Table II, strain S226
  MIC: 1 µg/mL
Staph. aureus; Table II, strain S227
  MIC: 1 µg/mL
Staph. aureus; Table II, strain S228
  MIC: 0.5 µg/mL
Staph. aureus; Table II, strain S229
  MIC: 1 µg/mL
Staph. aureus; Table II, strain S230
  MIC: 0.5 µg/mL
Staph. aureus; Table II, strain S231
  MIC: 0.5 µg/mL
Staph. aureus; Table II, strain S234
  MIC: 1 µg/mL
Staph. aureus; Table II, strain S237
  MIC: 1 µg/mL
Staph. aureus; Table II, strain S238
  MIC: 1 µg/mL
Staph. aureus; Table II, strain S239
  MIC: 1 µg/mL
Staph. aureus; Table III expanded spectrum, strain 8725
  MIC: 0.25 µg/mL
Staph. aureus; Table III, strain 8438
  MIC: 0.25 µg/mL
Staph. aureus; Table III, strain 8787
  MIC: 0.25 µg/mL
Staph. aureus; Table III, strain 9050
  MIC: 0.5 µg/mL
Staph. aureus; Table III, strain 9136
  MIC: 0.25 µg/mL
Staph. aureus; Table III, strain 9290
  MIC: 1 µg/mL
Staph. aureus; Table III, strain 9767
  MIC: 1 µg/mL
[1]
  Stability to β-lactamases: 256
[2]
  Stability to β-lactamases: 25
Propionibacterum acnes; isolate 44
  MIC: 4 µg/mL
Propionibacterum acnes; isolate 79
  MIC: 8 µg/mL
Propionibacterum acnes; isolate 101
  MIC: 8 µg/mL
Propionibacterum acnes; isolate 104
  MIC: 8 µg/mL
Propionibacterum acnes; isolate 105
  MIC: 4 µg/mL
Propionibacterum acnes; isolate 5191
  MIC: 0.25 µg/mL
Propionibacterum acnes; isolate 5227
  MIC: 0.25 µg/mL
Propionibacterum acnes; isolate 5228
  MIC: 8 µg/mL
Propionibacterum acnes; isolate 5229
  MIC: 8 µg/mL
Propionibacterum acnes; isolate 5246
  MIC: 8 µg/mL
H. influ.
  MIC: 32 µg/mL
Strep. A
  MIC: 0.5 µg/mL
[3]
  blood levels compared with cefaclor and cephalexin: higher and longer blood levels than cefaclor and cephalexin
[3]; oral
  oral absorption: efficiently orally absorbed
β-lactamase (TEM)
  Stability to β-lactamases: 3
Strep. PN
  MIC: 0.5 µg/mL
Bacteroides fragilis; isolate 200
  MIC: 32 µg/mL
Bacteroides fragilis; isolate 206
  MIC: 16 µg/mL
Bacteroides fragilis; isolate 3625
  MIC: 16 µg/mL
Bacteroides fragilis; isolate 7371A
  MIC: 16 µg/mL
Bacteroides fragilis; isolate 19671
  MIC: > 64 µg/mL
Bacteroides fragilis; isolate 19681
  MIC: 16 µg/mL
[4]
  Stability to β-lactamases: 50
[5]
  Stability to β-lactamases: 26
Klebsiella
  MIC: 2 µg/mL
B. Fragilis; strain 180-821
  MIC: 2 µg/mL
B. Fragilis; strain 10668
  MIC: 32 µg/mL
B. Fragilis; strain 10683
  MIC: 32 µg/mL
B. Fragilis; strain 10695
  MIC: 4 µg/mL
B. Fragilis; strain 10750
  MIC: 16 µg/mL
B. Fragilis; strain 10774
  MIC: 16 µg/mL
B. Fragilis; strain 10817
  MIC: 2 µg/mL
B. Fragilis; strain 10837
  MIC: 16 µg/mL
B. Fragilis; strain 107266
  MIC: 16 µg/mL
B. Fragilis; strain 107268
  MIC: 8 µg/mL
[6]; isolate 8
  MIC: ≤ 0.125 µg/mL
[6]; isolate 52
  MIC: 0.25 µg/mL
[6]; isolate 1477
  MIC: ≤ 0.125 µg/mL
[7]; isolate 1264
  MIC: 1 µg/mL
[7]; isolate 1524
  MIC: 1 µg/mL
[7]; isolate 1624
  MIC: 1 µg/mL
P. prevoti
  MIC: 0.5 µg/mL
Peptococcus Constellatus
  MIC: 0.25 µg/mL
[8]
  MIC: ≤ 0.125 µg/mL
P. magnus; isolate 1401
  MIC: 0.25 µg/mL
P. magnus; isolate 1477
  MIC: 0.5 µg/mL
[9]; 1 hour, read-out: plasma concentration after one hour
  concentration at 1 h: 18600 ng/mL
[9]; 4 hours, read-out: plasma concentration after four hours
  concentration at 4 h: 14100 ng/mL
[9]; 24 hours, read-out: plasma level after twenty-four hours
  concentration at 24 h: 1960 ng/mL
Staph. epi; Table I, strain 222
  MIC: 0.5 µg/mL
Staph. epi; Table I, strain EPI1
  MIC: 1 µg/mL
Staph. epi; Table II expanded spectrum, strain EPI1
  MIC: 8 µg/mL
Staph. epi; Table II, strain 219
  MIC: 0.5 µg/mL
Staph. epi; Table II, strain 269
  MIC: 2 µg/mL
Staph. epi; Table II, strain 270
  MIC: 4 µg/mL
Staph. epi; Table II, strain 285
  MIC: 2 µg/mL
Staph. epi; Table II, strain 286
  MIC: 1 µg/mL
